ChEMBL document CHEMBL1201862, “PubChem BioAssay data set” (2004)
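Protocol summary: plate cells (96-well), add compound at 5 concentrations, incubate 48 h, interpolate endpoints linearly. GI50: concentration for 50% inhibition of growth.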 Active and inactive are the calls of the source. Cut-off read from the data, not from the text of the source: active = GI50 up to about 1.1 µM and inactive = higher.

Legend:
Test in all cases: NCI anticancer screen, dose series, 48 h
TK-10 = test system: TK-10
MCF7 = test system: MCF7
NCI-H226 = test system: NCI-H226
T47D = test system: T47D
MOLT-4 = test system: MOLT-4
PC-3 = test system: PC-3
M14 = test system: M14
HT-29 = test system: HT-29
NCI-H460 = test system: NCI-H460
DU-145 = test system: DU-145
UO-31 = test system: UO-31
HCT-15 = test system: HCT-15
A549 = test system: A549
OVCAR-8 = test system: OVCAR-8
SK-MEL-28 = test system: SK-MEL-28
UACC-62 = test system: UACC-62
RPMI-8226 = test system: RPMI-8226
ACHN = test system: ACHN
IGROV-1 = test system: IGROV-1

| SMILES | GI50 (TK-10) | GI50 (MCF7) | GI50 (NCI-H226) | GI50 (T47D) | GI50 (MOLT-4) | GI50 (PC-3) | GI50 (M14) | GI50 (HT-29) | GI50 (NCI-H460) | GI50 (DU-145) | GI50 (UO-31) | GI50 (HCT-15) | GI50 (A549) | GI50 (OVCAR-8) | GI50 (SK-MEL-28) | GI50 (UACC-62) | GI50 (RPMI-8226) | GI50 (ACHN) | GI50 (IGROV-1) |
| --- | --- | --- | --- | --- | --- | --- | --- | --- | --- | --- | --- | --- | --- | --- | --- | --- | --- | --- | --- |
| CC(C)(C)n1c(=O)[nH]n(C2NN=Cc3cccc4cccc2c34)c1=O (configuration not stated) | 41.3 µM (inactive) | 30.6 µM (inactive) | 23.2 µM (inactive) | 47.9 µM (inactive) | 20.8 µM (inactive) | 31.8 µM (inactive) | 48 µM (inactive) | 20.4 µM (inactive) | 30.1 µM (inactive) | > 100 µM (inactive) | 14.1 µM (inactive) | 31.3 µM | 18.7 µM (inactive) | 40.3 µM (inactive) | 57.3 µM (inactive) | 23.9 µM (inactive) | 16.3 µM (inactive) |  |  |
| C=C(Br)C/N=C/N(C)C | > 100 µM (inactive) | > 100 µM (inactive) | > 100 µM (inactive) | > 100 µM (inactive) | > 100 µM (inactive) | > 100 µM (inactive) | > 100 µM (inactive) | > 100 µM (inactive) |  | > 100 µM (inactive) | > 100 µM (inactive) | > 100 µM | > 100 µM (inactive) | > 100 µM (inactive) | > 100 µM (inactive) | > 100 µM (inactive) | > 100 µM (inactive) | > 100 µM (inactive) | > 100 µM (inactive) |
| c1ccc2c(-c3cnc(-c4c[nH]c5ccccc45)cn3)c[nH]c2c1 | 47.1 µM (inactive) | 6.61 µM (inactive) |  | 66.5 µM (inactive) |  | 38 µM (inactive) | 29.1 µM (inactive) |  | 46.9 µM (inactive) | > 100 µM (inactive) | 39.5 µM (inactive) | 58.6 µM | > 100 µM (inactive) | 39.4 µM (inactive) | 35.6 µM (inactive) | 32.8 µM (inactive) | 45.3 µM (inactive) | 65.5 µM (inactive) | 30.8 µM (inactive) |
| CC(C)n1c(=O)c2nn3c(=O)n(C(C)C)c(=O)c3nn2c1=O | > 100 µM (inactive) | > 100 µM (inactive) | > 100 µM (inactive) | > 100 µM (inactive) | > 100 µM (inactive) | > 100 µM (inactive) | > 100 µM (inactive) | > 100 µM (inactive) | > 100 µM (inactive) | > 100 µM (inactive) |  | > 100 µM | > 100 µM (inactive) | > 100 µM (inactive) | > 100 µM (inactive) | > 100 µM (inactive) |  | > 100 µM (inactive) | > 100 µM (inactive) |
| O=C1CS(=O)(=O)C(c2cccc(Oc3ccccc3)c2)N1c1ccc(Cl)cc1 (configuration not stated) | 22.6 µM (inactive) | 13.8 µM (inactive) | 21.9 µM (inactive) | 10.9 µM (inactive) | 20.9 µM (inactive) | 17.9 µM (inactive) | 18.5 µM (inactive) | 25 µM (inactive) | 15 µM (inactive) | 67.3 µM (inactive) | 28.6 µM (inactive) | 20.2 µM | 30.8 µM (inactive) | 18.8 µM (inactive) | 32.4 µM (inactive) | 8.71 µM (inactive) |  | 19 µM (inactive) | 14.3 µM (inactive) |
| CN1C(=O)c2ccccc2NC(=O)C12O[C@@H]2c1ccccc1 (some centres not stated) | > 100 µM (inactive) | > 100 µM (inactive) |  | > 100 µM (inactive) | > 100 µM (inactive) | > 100 µM (inactive) | > 100 µM (inactive) | > 100 µM (inactive) | > 100 µM (inactive) | > 100 µM (inactive) | > 100 µM (inactive) | > 10 µM | > 100 µM (inactive) | > 100 µM (inactive) | > 100 µM (inactive) | > 100 µM (inactive) | > 100 µM (inactive) | > 100 µM (inactive) | > 100 µM (inactive) |
| NC(=O)C(C(N)=O)=C(O)/C(O)=C/C(=O)c1ccccc1 | > 100 µM (inactive) | 0.849 µM (active) | > 100 µM (inactive) | > 100 µM (inactive) |  | > 100 µM (inactive) | > 100 µM (inactive) | > 100 µM (inactive) | > 100 µM (inactive) | > 100 µM (inactive) | > 100 µM (inactive) | > 100 µM | > 100 µM (inactive) | > 100 µM (inactive) | > 100 µM (inactive) | > 100 µM (inactive) | 12.6 µM (inactive) | > 100 µM (inactive) | > 100 µM (inactive) |
| O=S(=O)(Nc1ccccc1S(=O)(=O)c1ccccc1)c1ccccc1 | > 100 µM (inactive) | > 100 µM (inactive) | > 100 µM (inactive) | 59.3 µM (inactive) | 65.8 µM (inactive) | 52.4 µM (inactive) | > 100 µM (inactive) | 48 µM (inactive) |  | 87.9 µM (inactive) | > 100 µM (inactive) | 50.6 µM | 67.1 µM (inactive) | 68.5 µM (inactive) | > 100 µM (inactive) | 49 µM (inactive) | 32.3 µM (inactive) | 82.2 µM (inactive) | > 100 µM (inactive) |
| O=C(O)C[S+]([O-])c1ccc2c3c(cccc13)C(=O)c1ccccc1-2 (configuration not stated) | > 100 µM (inactive) | > 100 µM (inactive) | > 100 µM (inactive) | > 100 µM (inactive) |  | > 100 µM (inactive) | > 100 µM (inactive) | > 100 µM (inactive) | > 100 µM (inactive) | > 100 µM (inactive) | > 100 µM (inactive) | > 100 µM | > 100 µM (inactive) | > 100 µM (inactive) | > 100 µM (inactive) | > 100 µM (inactive) | > 100 µM (inactive) | > 100 µM (inactive) | > 100 µM (inactive) |
| CCOC(=O)Nc1nn(C)/c(=N/Cc2ccccc2)s1 | > 100 µM (inactive) | > 100 µM (inactive) |  | > 100 µM (inactive) | > 100 µM (inactive) | > 100 µM (inactive) |  |  | > 100 µM (inactive) | > 100 µM (inactive) | 33.4 µM (inactive) | > 100 µM | > 100 µM (inactive) |  | > 100 µM (inactive) | > 100 µM (inactive) | > 100 µM (inactive) | > 100 µM (inactive) | > 100 µM (inactive) |
| Cc1[nH]n(-c2nc3c(c(=O)[nH]2)CCCC3)c(=O)c1CCO | > 100 µM (inactive) | > 100 µM (inactive) | > 100 µM (inactive) | > 100 µM (inactive) | > 100 µM (inactive) | > 100 µM (inactive) | > 100 µM (inactive) | > 100 µM (inactive) | > 100 µM (inactive) | > 100 µM (inactive) | > 100 µM (inactive) | > 100 µM | > 100 µM (inactive) | > 100 µM (inactive) | > 100 µM (inactive) | > 100 µM (inactive) |  | > 100 µM (inactive) | > 100 µM (inactive) |
| Cn1nc(/C=C\C(=O)N2CC(CCl)c3c2cc(N)c2ccccc32)cc1/C=C/C(=O)N1CC(CCl)c2c1cc(N)c1ccccc21 (configuration not stated) | < 0.01 µM (active) | < 0.01 µM (active) | < 0.01 µM (active) | < 0.01 µM (active) | < 0.01 µM (active) | < 0.01 µM (active) | < 0.01 µM (active) |  | < 0.01 µM (active) | < 0.01 µM (active) | < 0.01 µM (active) | 0.0119 µM | < 0.01 µM (active) | < 0.01 µM (active) | < 0.01 µM (active) | < 0.01 µM (active) |  | < 0.01 µM (active) |  |
| C=CCNC(=S)NC=C(C(N)=O)C(N)=O |  | > 100 µM (inactive) | > 100 µM (inactive) | > 100 µM (inactive) | > 100 µM (inactive) | > 100 µM (inactive) | > 100 µM (inactive) | > 100 µM (inactive) | > 100 µM (inactive) | > 100 µM (inactive) | 87.9 µM (inactive) | > 100 µM | > 100 µM (inactive) | > 100 µM (inactive) | > 100 µM (inactive) | > 100 µM (inactive) | > 100 µM (inactive) | > 100 µM (inactive) | > 100 µM (inactive) |
| CC(C)C(=O)NCC[C@@H](CNC(=O)OC(C)(C)C)NC(=O)OC(C)(C)C | > 100 µM (inactive) | > 100 µM (inactive) | > 100 µM (inactive) | > 100 µM (inactive) | > 100 µM (inactive) | > 100 µM (inactive) | > 100 µM (inactive) | > 100 µM (inactive) | > 100 µM (inactive) | > 100 µM (inactive) | > 100 µM (inactive) | > 100 µM | > 100 µM (inactive) | > 100 µM (inactive) | > 100 µM (inactive) | > 100 µM (inactive) |  | > 100 µM (inactive) | > 100 µM (inactive) |
| CC(=O)N1C(Nc2cccc3nc(C)ccc23)CCN1c1ccccc1 (configuration not stated) | > 10 µM (inactive) | > 10 µM (inactive) | > 10 µM (inactive) | > 10 µM (inactive) | > 10 µM (inactive) | > 10 µM (inactive) | > 10 µM (inactive) | > 10 µM (inactive) | > 10 µM (inactive) | > 10 µM (inactive) | > 10 µM (inactive) | 7.98 µM | > 10 µM (inactive) | > 10 µM (inactive) | > 10 µM (inactive) |  | > 10 µM (inactive) | > 10 µM (inactive) | > 10 µM (inactive) |
| COc1ccc2oc(=N)c(C(=O)Nc3cccc4ccccc34)cc2c1 | 19.6 µM (inactive) | 5.7 µM (inactive) | 25.5 µM (inactive) | 23.6 µM (inactive) |  | 12.3 µM (inactive) | 17.9 µM (inactive) | 15.1 µM (inactive) | 3.95 µM (inactive) | 24 µM (inactive) | 13 µM (inactive) | 1.61 µM | 25.1 µM (inactive) |  | > 100 µM (inactive) | 2.47 µM (inactive) | 14.1 µM (inactive) | 25.5 µM (inactive) |  |
